We go through 14 compounds from paper PMC3121759 (PLoS ONE, 2011).

Assay [1] deals with T1, GlyT-1 (Rattus norvegicus, UniProt P28572).
T1 construct: the tissues of whole brains or each specific brain region were homogenized; from tissue; host or cells: rat brain (whole brain or dissected regions; male Crl:CD (SD) rats)
T1 sequence (P28572 1-638): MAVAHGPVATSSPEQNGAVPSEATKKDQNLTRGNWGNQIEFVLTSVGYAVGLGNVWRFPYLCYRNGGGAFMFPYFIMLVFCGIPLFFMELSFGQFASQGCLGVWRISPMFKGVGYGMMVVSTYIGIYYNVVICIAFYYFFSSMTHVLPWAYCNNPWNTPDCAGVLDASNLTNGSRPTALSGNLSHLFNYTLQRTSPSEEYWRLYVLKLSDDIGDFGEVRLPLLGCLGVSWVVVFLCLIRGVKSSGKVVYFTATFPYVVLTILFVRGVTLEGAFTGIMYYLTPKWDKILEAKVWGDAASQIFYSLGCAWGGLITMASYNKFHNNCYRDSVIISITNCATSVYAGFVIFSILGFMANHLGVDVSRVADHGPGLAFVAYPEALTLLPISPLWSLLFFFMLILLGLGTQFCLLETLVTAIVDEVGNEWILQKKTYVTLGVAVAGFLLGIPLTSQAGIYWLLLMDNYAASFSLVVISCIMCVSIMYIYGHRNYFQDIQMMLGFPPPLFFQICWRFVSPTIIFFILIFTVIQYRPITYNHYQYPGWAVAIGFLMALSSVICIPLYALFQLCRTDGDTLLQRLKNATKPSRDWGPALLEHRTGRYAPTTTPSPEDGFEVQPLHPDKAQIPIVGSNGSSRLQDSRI
Description: Drug inhibition of [3H]CHIBA-3007 binding to rat brain membranes. Particulars: [3H]CHIBA-3007 (1 nM). As for the experimental part: The supernatant was discarded and the pellet was re-suspended, homogenized and centrifuged as above. The membrane pellet was washed and re-suspended in ice-cold HEPES buffer and was then centrifuged three times. The final pellet was re-suspended in 15 volumes of the buffer (120 mM NaCl, 2 mM KCl, 1 mM CaCl2, 1 mM MgCl2 10 mM HEPES, pH 7.5 at room temperature).
The binding reaction was terminated by rapid vacuum filtration onto Whatman GF/B glass filters pretreated with 0.5% polyethyleneimine (Sigma-Aldrich Co.) using a 24-channel cell harvester (Brandell, Gaithersburg, MD). The filters were washed with 5 mL of ice-cold assay buffer 3 times, and placed in vials with 4 mL scintillation cocktail. The radioactivity trapped by the filters was determined using a liquid scintillation counter (Beckman LS-6500; Beckman Coulter K.K., Tokyo, Japan).
(§1) The data are shown as the mean ± standard error of the mean (S.E.M.). The dissociation constant (Kd) and maximal binding (Bmax) values from saturation binding and the IC50 values from binding displacement by each drug were determined using the program GraphPad Prism (GraphPad Software, San Diego, CA). […] Correlation was analyzed by Pearson's Correlation Coefficient (PASW Statistics 19, Tokyo, Japan). Significance was set at p<0.05.

For assay [2], the system named is GlyT-1. Particulars: read-out: IC50 for [3H]glycine uptake; cited from earlier work.
In assay [3] the target is T1, GlyT-1. Description: Inhibition of [14C]glycine uptake in rat brain membranes. It counts as biochemical. As for the experimental part: The homogenate was centrifuged at 1,000 g for 10 min to remove nuclei and debris, and then the supernatant was centrifuged again at 20,000 g for 20 min (synaptosomal P2 fraction). The pellet was washed and re-suspended in ice-cold 0.32 M sucrose, buffered with 10 mM HEPES (pH 7.4) and centrifuged again at 20,000 g for 20 min (washed P2 fraction). The pellet was re-suspended in 10 volumes of assay buffer with the following composition: 10 mM HEPES buffer (pH 7.4) containing 140 mM NaCl, 5.5 mM KCl, 1.8 mM CaCl2, 0.8 mM MgSO4, 5 mM glucose and 5 mM L-alanine (HB). The protein concentrations were measured by using a DC protein assay kit (Bio-Rad Laboratories Inc., Tokyo, Japan).
Non-specific uptake was estimated in the presence of 30 µM SSR504734. […] The filters were washed by buffer, and the radioactivity trapped by the filters was determined using a liquid scintillation counter as described above.
as §1

In assay [4] the target is T1, GlyT-1. Particulars: cited from earlier work.
The target of assay [5] is T1, GlyT-1. As to the kind of experiment: Equilibrium saturation binding of [3H]CHIBA-3007 to rat brain membranes. Here is the method: For saturation-binding isotherms, 6 grade-diluted concentrations of [^3H]CHIBA-3007 (0.3125–10 nM) were used. Specific binding of [^3H]CHIBA-3007 to rat brain membranes was saturable and rapid, and represented >90% of total binding over the concentration range of [^3H]CHIBA-3007 (Figure 2).
Figure 2 Specific binding of [^3H]CHIBA-3007 to rat brain membranes. Rat brain membranes were incubated with various concentrations of [^3H]CHIBA-3007 (0.3125–10 nM) for 120 min at room temperature. Nonspecific binding was estimated in the presence of 10 µM SSR504734. The results are from a typical experiment and values are the average of duplicate determinations. […] TB: total binding, NSB: nonspecific binding, SB: specific binding. The results are means ± S.E.M. of three independent experiments performed in duplicate. […] The data are the mean of three independent experiments performed in duplicate.
(§2) For the [^3H]CHIBA-3007-binding assay, the tissues of whole brains or each specific brain region were homogenized in 15 volumes (w/v) of 10 mM 4-(2-hydroxyethyl)-1- piperazineethanesulfonic acid (HEPES) at pH 7.4 for 30 s on ice. The homogenate was centrifuged at 40,000 g for 15 min at 4°C. The supernatant was discarded and the pellet was re-suspended, homogenized and centrifuged as above. The membrane pellet was washed and re-suspended in ice-cold HEPES buffer and was then centrifuged three times. The final pellet was re-suspended in 15 volumes of the buffer (120 mM NaCl, 2 mM KCl, 1 mM CaCl2, 1 mM MgCl2 10 mM HEPES, pH 7.5 at room temperature).
Assays of the binding of [^3H]CHIBA-3007 to rat brain membranes were performed. Aliquots of the rat brain membrane suspension (200 µL) were added in duplicate to a reaction mixture containing [^3H]CHIBA-3007 and the indicated concentrations of test drug in a final volume of 0.5 mL. Non-specific binding was estimated in the presence of 10 µM SSR504734, a potent and selective GlyT-1 inhibitor [34]. [3H]CHIBA-3007 binding was allowed to occur for 120 min at room temperature for the equilibrium saturation and inhibition studies. The binding reaction was terminated by rapid vacuum filtration onto Whatman GF/B glass filters pretreated with 0.5% polyethyleneimine (Sigma-Aldrich Co.) using a 24-channel cell harvester (Brandell, Gaithersburg, MD). The filters were washed with 5 mL of ice-cold assay buffer 3 times, and placed in vials with 4 mL scintillation cocktail. The radioactivity trapped by the filters was determined using a liquid scintillation counter (Beckman LS-6500; Beckman Coulter K.K., Tokyo, Japan).
as §1

For assay [6], the target named is T1, GlyT-1. Description: Regional distribution of [3H]CHIBA-3007 binding in rat brain. Particulars: [3H]CHIBA-3007 1 nM, seven rat brain regions. Here is the method: After sacrificing the rats by decapitation, the brains were rapidly removed from the skulls. Whole brains or seven specific cerebral regions - the cerebral cortex, striatum, hippocampus, thalamus, midbrain, cerebellum and pons - dissected on ice by the method of Glowinski and Iversen were stored at −80°C until use for the assay.
as §2
Assays of the binding of [^3H]CHIBA-3007 to rat brain membranes were performed. […] The radioactivity trapped by the filters was determined using a liquid scintillation counter (Beckman LS-6500; Beckman Coulter K.K., Tokyo, Japan).

In assay [7] the test system is GlyT-1. Particulars: cited from earlier work.
The mark [8] stands for this setting: 120 min room temperature, mean ± S.E.M., n=3.

SMILES strings stand for the structures. Several values for one entry are separate records, joined by “and”; a condition that tells them apart may be missing. Equal entries are not always repeated. Where two headings read alike, the source gives them in different places.

On GlyT-1 [1] (setting [8]), `O=C(N[C@@H](c1cccc(-c2cn[nH]c2)c1)[C@H]1CCCCN1)c1nccc(C(F)(F)F)c1Cl` [CHIBA-3008, N-((S)-(3-(1H-pyrazol-4-yl)phenyl)((R)-piperidin-2-yl)methyl)-3-chloro-4-(trifluoromethyl)pyridine-2-carboxamide] showed a Ki of 0.0022 ± 0.0006 µM. For the same compound, the half-maximal inhibitory concentration (IC50) with GlyT-1 [2] is 0.0002 µM.
Turning to `CNCC(=O)O` [Sarcosine, sarcosine], the Ki at GlyT-1 [1] and on GlyT-1 [1] (setting [8]) was 103 µM in each case. On GlyT-1 [3], this compound showed an IC50 of 414 µM.
`CN(CC[C@@H](Oc1ccc(C(F)(F)F)cc1)c1ccccc1)CC(=O)O` (racemic) [Org24598, (R,S)-(±)N-methyl-N-[(4-trifluoromethyl)phenoxy]-3-phenylpropylglycine]: affinity at GlyT-1 [1] (setting [8]) was put at a Ki of 0.0169 ± 0.0031 µM. In addition, it took 0.653 ± 0.154 µM to reach half-maximal inhibition against GlyT-1 [3] (IC50).
As for `COc1ccc2c(c1)CC[C@H](CN(C)CC(=O)O)[C@@H]2c1ccccc1` [Org25935], the “Type of interaction with binding of [3H]SB-733993 and [3H]GSK931145” value on GlyT-1 [4] is recorded as “uncompetitive interactions”.
`N[C@@H](COC(c1cccc(F)c1)c1ccccc1OCc1ccccc1)C(=O)O` (stereo partly drawn) [ALX1393, O-[(2-benzyloxyphenyl-3-flurophenyl)methyl]-L-serine]: on GlyT-1 [1] (setting [8]), the Ki was determined as 0.852 ± 0.0564 µM.
On GlyT-1 [1] (setting [8]), `CN(CCC(Oc1ccc(-c2ccccc2)cc1)c1ccc(F)cc1)CC(=O)O` (centres unmarked) [NFPS/ALX5407, N-[3-(4-fluorophenyl)-3-(4-phenyl-phenoxy)propyl]-sarcosine] registered a Ki of 0.0041 ± 0.0009 µM. Further, on GlyT-1 [3], the IC50 stood at 0.0837 ± 0.0303 µM. For the same compound, the “Type of interaction with binding of [3H]SB-733993 and [3H]GSK931145” value on GlyT-1 [4] was “uncompetitive interactions”.
On to `[3H]C([3H])([3H])N1CCCC[C@@H]1[C@@H](NC(=O)c1nccc(C(F)(F)F)c1Cl)c1ccsc1` [[^3H]CHIBA-3007, [^3H]3-chloro-N-((S)-((R)-1-methylpiperidin-2-yl)(thiophen-3-yl)methyl)-4-(trifluoromethyl)picolinamide], for which, on GlyT-1 [5], the Nonspecific binding is listed as < 10%. Besides, the “Time to reach binding equilibrium” value at GlyT-1 [5] (kinetic study, data not shown) was “less than 5 min”. Further, the “Specific binding as share of total binding” value at GlyT-1 [5] (over the concentration range 0.3125–10 nM) is recorded as > 90%. At GlyT-1 [5] (room temperature, n=3), the “Bmax (maximal number of binding sites)” value was 692.8 fmol/mg protein and 692.8±22.8 fmol/mg protein. For the same compound, the “Order of specific binding in brain regions” value at GlyT-1 [6] is reported as “midbrain > pons > thalamus > cerebellum > striatum > hippocampus > cerebral cortex”.
Turning to `Cc1cccc(C)c1C(=O)N[C@@H](c1ccccc1)C1(N(C)C)CCCC1` [[^3H]GSK931145], the Kd on GlyT-1 [4] is 0.001 to 0.002 µM.
With `O=C(N[C@@H](c1ccccc1)[C@@H]1CCCCN1)c1cccc(C(F)(F)F)c1Cl` [SSR504734], on GlyT-1 [1] (setting [8]), affinity was put at a Ki of 0.0246 ± 0.0008 µM. At GlyT-1 [3], this compound gave an IC50 of 0.0845 ± 0.0298 µM. For the same compound, the “pIC50 for inhibiting [3H]glycine uptake” value in the assay on GlyT-1 [7] is listed as 6.52.
On GlyT-1 [1] (setting [8]), `CN(CCOc1ccc(-c2ccc3c(c2)OCO3)cc1C(C)(C)C)CC(=O)O` [LY2365109] showed an inhibition constant Ki of 0.0162 ± 0.0049 µM. In addition, the IC50 at GlyT-1 [3] worked out at 1.35 µM.
`O=C(N[C@@H](c1ccsc1)[C@H]1CCCCN1)c1nccc(C(F)(F)F)c1Cl` [Desmethyl-CHIBA-3007, 3-chloro-N-((S)-((R)-piperidin-2-yl)(thiophen-3-yl)methyl)-4-(trifluoromethyl)picolinamide] displayed an inhibition constant (Ki) on GlyT-1 [1] (setting [8]) of 0.0359 ± 0.0013 µM. This compound yielded an IC50 against GlyT-1 [3] of 0.187 ± 0.04 µM.
For the compound `[3H]C([3H])([3H])N(C)C1([C@@H](NC(=O)c2c(C)cccc2C)c2ccccc2)CCCC1` [[^3H]GSK931145], the “Specific binding as share of total binding” value on GlyT-1 [4] (at concentrations around Kd) is > 90%. In addition, the Bmax result on GlyT-1 [4] (rat brain) is given as “around 3000 fmol/mg protein”.
For `Cc1cccc(C)c1C(=O)N[C@@H](c1ccccc1)C1(N(C)C)CCCC1` [GSK931145], in the assay with GlyT-1 [7], the “pIC50 for inhibiting [3H]glycine uptake” value is reported as 7.58.
Take `CN1CCCC[C@@H]1[C@@H](NC(=O)c1nccc(C(F)(F)F)c1Cl)c1ccsc1` [[^3H]CHIBA-3007, [^3H]3-chloro-N-((S)-((R)-1-methylpiperidin-2-yl)(thiophen-3-yl)methyl)-4-(trifluoromethyl)picolinamide]: the Kd at GlyT-1 [5] (room temperature, 0.3125–10 nM radioligand, n=3, read-out: Kd (apparent equilibrium dissociation constant)) was 0.00161 ± 0.00016 µM.
